Experimental findings from Sander's compilation of Henry's law constants (doi:10.1002/etc.5620201008) are described below.

Molecules are shown by their SMILES. Where “and” joins values, the source holds several entries; their conditions need not be identical. Equal entries are not always repeated.

Common to all, as to conditions: reference: Kochetkov et al. (2001)
A short description of series [1]: Henry solubility constant Hcp at 301 K (mol/(m3 Pa)).
The nature of series [2]: Henry solubility constant Hcp at 299 K (mol/(m3 Pa)).
Series [3] in a line: Henry solubility constant Hcp at 300 K (mol/(m3 Pa)).

For the compound `c1ccccc1` [benzene], the “Henry solubility constant Hcp at 301 K” value in series [1] was 0.0021 and 0.0017. As to `C[Si]1(C)O[Si](C)(C)O[Si](C)(C)O[Si](C)(C)O[Si](C)(C)O1` [decamethylcyclopentasiloxane], the “Henry solubility constant Hcp at 299 K” value in series [2] is 3.4e-05 and 3.1e-05. For the compound `C[Si](C)(C)O[Si](C)(C)O[Si](C)(C)O[Si](C)(C)C` [decamethyltetrasiloxane], the “Henry solubility constant Hcp at 300 K” value in series [3] was 5.8e-07. As for `C[Si]1(C)O[Si](C)(C)O[Si](C)(C)O[Si](C)(C)O[Si](C)(C)O[Si](C)(C)O1` [dodecamethylcyclohexasiloxane], in series [2], the “Henry solubility constant Hcp at 299 K” value is 6.8e-05 and 0.00015. As to `C[Si](C)(C)O[Si](C)(C)C` [hexamethyldisiloxane], the “Henry solubility constant Hcp at 300 K” value in series [3] is 0.00017 and 0.00031.

As for `C[Si](C)(C)O[Si](C)(C)O[Si](C)(C)C` [octamethyltrisiloxane], the “Henry solubility constant Hcp at 300 K” value in series [3] is 3.3e-06 and 2.7e-06.
